Measurements from US20040171627A1, “Treatment of renal fibrosis” (Hadasit, priority 2001, published 2004).
Values joined by “and” are separate entries in the source; they are usually repeats but may differ in a detail not shown here. Equal values may be shown once. “Also recorded” adds a separate entry of the source.

Assays:
[1] = system: RMR rats (5/6 nephrectomy); assay: Protein concentration in urine (proteinuria) of RMR rats; assay type: in vivo, Male Wistar rats; conditions: halofuginone 0.2 mg/kg/day oral, statistically significant from week 5 post-nephrectomy on (FIG. 2)
Description: Male Wistar rats (weighing 300±30 g at the start of the experiment) were used in this study. They were allowed to acclimatize to their environment for one week. Rats were assigned to undergo renal mass reduction (RMR) by 5/6 nephrectomy or Sham operation, under anesthesia with intraperitoneal injection of pentobarbital (35 mg/kg body weight). RMR was performed by ligature of 2 of 3 major branches of the left renal artery and right nephrectomy in the same session. Sham rats have undergone exposition of the kidneys and removal of the peri-renal fat. After 24 hours recovery the rats were assigned to one of the following groups: 1) Group I: RMR rats, oral gavage with halofuginone 0.2 mg/kg/day started 24 hours post surgery. 2) Group II: RMR rats, oral gavage with normal saline daily, started 24 hours post surgery. 3) Group III: age matched, sham operated rats served as the controls. […] Every week, systolic blood pressure was measured by tail cuff manometry and urine samples were collected individually in metabolic cages for determination of total protein and creatinine excretion. Protein concentration in urine was determined by a colorimetric method using pyrogallol-red molybdate complex (cobas integra 700, Roche). Body weight was also measured. […] Serum creatinine was measured with a Hitachi model 747 autoanalyzer, using the kinetic Jaffe method.

[2] = system: RMR rats (5/6 nephrectomy), renal fibrosis; assay: Light microscopy of kidneys after 5/6 nephrectomy (RMR) in rats, semi-quantitative histological evaluation; assay type: in vivo, Male Wistar rats
Description: A solution of halofuginone was prepared by dissolution of powder of halofuginone hydrobromide in aqueous media containing suitable buffer. Male Wistar rats (weighing 300±30 g at the start of the experiment) were used in this study after being allowed to acclimatize to their environment for one week. Rats were assigned to undergo renal mass reduction (RMR) by 5/6 nephrectomy or sham operation, under anesthesia with intraperitoneal injection of pentobarbital (35 mg/kg body weight). RMR was performed by ligature of 2 of 3 major branches of the left renal artery and right nephrectomy in the same session. Sham rats undergo exposure of the kidneys and removal of the peri-renal fat, without undergoing RMR. After 24 hours recovery of the rats were assigned to one of the following groups: 1) Group I: RMR rats, oral gavage with halofuginone 0.2 mg/kg/day started 24 hours post surgery. 2) Group II: RMR rats, oral gavage with normal saline daily, started 24 hours post surgery. 3) Group III: age matched, sham operated rats served as the controls. All animals were allowed free access to a standard diet and water ad libitum. At sacrifice (10 weeks after RMR), kidneys were removed and processed for in situ hybridization, immunohistochemistry and histological evaluation. Light microscopy studies: specimens were fixed in 10% buffered formaldehyde and embedded in paraffin. Histological sections of 4-5μ thickness were stained with hematoxylin-eosin (HES), periodic acid Schiff (PAS) and Masson trichrome (light green). A semi-quantitative score was used to evaluate the degree of glomerulosclerosis, mesangial expansion and proliferation and tubulo-interstitial changes. A minimum of 30 glomeruli in each specimen was examined and the severity of the lesions was graded from 0 to 4+, according to the percentage of glomerular involvement. […] An injury score was obtained by multiplying the degree of damage (0-4+) by the percentage of glomeruli with the same degree of lesions. The evaluation of tubulointerstitial fibrosis was performed with the point-counting method using a Zeiss I integrating eyepiece.

## O=C(CC1NCCC[C@H]1O)Cn1cnc2cc(Br)c(Cl)cc2c1=O (stereo in doubt) [Halofuginone, 7-bromo-6-chloro-3-[3-(3-hydroxy-2-piperidinyl)-2-oxopropyl]-4(3H)-quinazolinone]
[1]
  levels of proteinuria versus control nephrectomized group: lower levels of proteinuria
[2]; halofuginone 0.2 mg/kg/day oral, RMR rats, 10 weeks
  tubulointerstitial fibrosis compared to the control group: significant decrease
[2]; halofuginone 0.2 mg/kg/day oral, RMR rats, 10 weeks, versus control
  presence of glomerulosclerosis and mesangial proliferation: less accentuated
[2]; individual rats of Group I, halofuginone 0.2 mg/kg/day oral gavage, 10 weeks after RMR, light microscopy
  Tubules: Normal; also recorded: Few atrophic
[2]; individual rats of Group I, halofuginone 0.2 mg/kg/day oral gavage, 10 weeks after RMR, light microscopy (preliminary results)
  Glomerulus Proliferation: Mild (4×) and Moderate (2×)
[2]; individual rats of Group I, halofuginone 0.2 mg/kg/day oral gavage, 10 weeks after RMR, light microscopy, graded 0 to 4+
  Glomerulus Sclerosis: 0
